The values below come from ChEMBL document CHEMBL4619774 (J Med Chem, 2020).

A short description of data set [1]: Oral bioavailability in Sprague-Dawley rat at 3 mg/kg via gavage by HPLC-MS/MS analysis. Format: ADME, organism-based. Particulars: in vivo.
Data set [2] can be described thus: Clearance in C57BL/6 mouse at 0.4 mg/kg, iv bolus injection or 3 mg/kg, po by LC-MS/MS analysis. Format: ADME, organism-based. Particulars: in vivo.
A short description of data set [3]: Volume of distribution at steady state in C57BL/6 mouse at 0.4 mg/kg, iv bolus injection or 3 mg/kg, po by LC-MS/MS analysis. Format: ADME, organism-based. Conditions: in vivo, read-out: Vdss.
For data set [4], the target named is T1, Coagulation factor XI (Homo sapiens, UniProt P03951). The data set can be described thus: Inhibition of […] human plasma F11a catalytic domain expressed in Escherichia coli strain BL21(DE3) using D-Leu-Pro-Arg*Rh110-D-Pro as substrate preincubated for 60 mins followed by substrate addition and measured after 60 mins by fluorescence assay.
Data set [5] is described as follows: Volume of distribution at steady state in Sprague-Dawley rat at 1 mg/kg, iv administered as bolus dose by HPLC-MS/MS analysis. Format: ADME, organism-based. Conditions: in vivo, read-out: Vdss.
The target of data set [6] is T1, Coagulation factor XI. The data set can be described thus: Inhibition of human F11a using D-Leu-Pro-Arg*Rh110-D-Pro as substrate preincubated for 60 mins followed by substrate addition and measured after 60 mins by fluorescence assay.
Data set [7] can be described thus: Dose normalized AUC in C57BL/6 mouse at 100 mg/kg, po by LC-MS/MS analysis. Format: ADME, organism-based. Particulars: in vivo.
A short description of data set [8]: Oral bioavailability in C57BL/6 mouse at 3 mg/kg by LC-MS/MS analysis. The class given is ADME, organism-based. Particulars: in vivo.
Data set [9] can be described thus: Dose normalized AUC in C57BL/6 mouse at 1 mg/kg, iv by LC-MS/MS analysis. Format: ADME, organism-based. Particulars: in vivo.
A short description of data set [10]: Oral bioavailability in Sprague-Dawley rat at 100 via gavage mg/kg by HPLC-MS/MS analysis. The class given is ADME, organism-based. Conditions: in vivo, 100 mg/kg.
The target of a further data set is T2, Coagulation factor VII (Homo sapiens, UniProt P08709).
T2 sequence (P08709 whole entry): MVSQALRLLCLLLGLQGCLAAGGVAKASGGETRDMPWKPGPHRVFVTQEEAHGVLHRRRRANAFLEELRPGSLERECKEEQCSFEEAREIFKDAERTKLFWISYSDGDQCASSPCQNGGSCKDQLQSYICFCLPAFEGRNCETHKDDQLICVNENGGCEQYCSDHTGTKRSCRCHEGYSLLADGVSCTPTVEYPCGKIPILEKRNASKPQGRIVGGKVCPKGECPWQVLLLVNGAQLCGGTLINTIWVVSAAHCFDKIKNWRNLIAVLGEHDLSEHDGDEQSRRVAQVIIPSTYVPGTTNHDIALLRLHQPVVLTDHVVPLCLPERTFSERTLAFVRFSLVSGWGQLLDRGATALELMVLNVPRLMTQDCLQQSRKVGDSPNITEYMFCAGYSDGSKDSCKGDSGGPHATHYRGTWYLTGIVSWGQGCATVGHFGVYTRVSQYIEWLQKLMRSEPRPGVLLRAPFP
The class given is single protein.

The nature of data set [11]: Dose normalized AUC (0 to t) in Sprague-Dawley rat at 30 mg/kg, po via gavage by HPLC-MS/MS analysis. Format: ADME, organism-based. Conditions: in vivo.
For another data set, the target named is Bile salt export pump (Homo sapiens, UniProt O95342). Nature of the data set: Inhibition of BSEP (unknown origin).
Chain of Bile salt export pump (O95342 whole entry): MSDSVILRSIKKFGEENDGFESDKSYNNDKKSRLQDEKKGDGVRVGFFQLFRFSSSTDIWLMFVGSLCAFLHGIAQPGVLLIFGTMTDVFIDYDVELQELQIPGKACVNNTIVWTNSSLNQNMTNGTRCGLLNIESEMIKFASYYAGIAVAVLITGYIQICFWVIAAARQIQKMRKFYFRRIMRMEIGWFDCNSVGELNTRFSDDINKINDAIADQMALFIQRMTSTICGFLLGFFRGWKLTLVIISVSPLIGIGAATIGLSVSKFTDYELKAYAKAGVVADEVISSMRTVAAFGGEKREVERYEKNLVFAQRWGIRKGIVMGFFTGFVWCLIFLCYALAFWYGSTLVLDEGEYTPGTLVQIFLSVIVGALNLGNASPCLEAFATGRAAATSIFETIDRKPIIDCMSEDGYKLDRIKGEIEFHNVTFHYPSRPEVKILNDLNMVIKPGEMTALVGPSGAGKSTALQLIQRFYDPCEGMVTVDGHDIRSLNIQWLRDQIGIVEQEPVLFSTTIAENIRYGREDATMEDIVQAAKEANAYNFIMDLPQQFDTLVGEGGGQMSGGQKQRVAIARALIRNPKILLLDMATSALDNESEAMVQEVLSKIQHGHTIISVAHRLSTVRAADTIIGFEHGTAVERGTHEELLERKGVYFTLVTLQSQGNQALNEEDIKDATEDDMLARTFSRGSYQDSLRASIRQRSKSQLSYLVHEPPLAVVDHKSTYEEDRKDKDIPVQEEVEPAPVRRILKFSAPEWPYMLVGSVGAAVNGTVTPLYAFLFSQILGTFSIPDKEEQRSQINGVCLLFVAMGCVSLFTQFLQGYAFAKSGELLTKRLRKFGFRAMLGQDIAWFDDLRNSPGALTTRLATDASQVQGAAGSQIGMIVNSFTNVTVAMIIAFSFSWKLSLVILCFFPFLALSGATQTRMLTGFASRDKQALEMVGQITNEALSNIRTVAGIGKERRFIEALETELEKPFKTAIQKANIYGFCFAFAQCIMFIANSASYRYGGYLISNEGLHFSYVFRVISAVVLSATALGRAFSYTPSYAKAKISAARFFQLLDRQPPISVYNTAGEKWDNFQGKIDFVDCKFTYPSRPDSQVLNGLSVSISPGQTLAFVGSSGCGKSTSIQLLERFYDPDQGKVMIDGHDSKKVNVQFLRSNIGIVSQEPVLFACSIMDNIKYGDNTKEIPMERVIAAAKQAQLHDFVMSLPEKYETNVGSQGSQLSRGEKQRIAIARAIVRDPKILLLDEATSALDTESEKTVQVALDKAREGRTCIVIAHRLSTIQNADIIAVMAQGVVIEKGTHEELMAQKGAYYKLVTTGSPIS

T1 sequence (P03951 19-387 limits assumed): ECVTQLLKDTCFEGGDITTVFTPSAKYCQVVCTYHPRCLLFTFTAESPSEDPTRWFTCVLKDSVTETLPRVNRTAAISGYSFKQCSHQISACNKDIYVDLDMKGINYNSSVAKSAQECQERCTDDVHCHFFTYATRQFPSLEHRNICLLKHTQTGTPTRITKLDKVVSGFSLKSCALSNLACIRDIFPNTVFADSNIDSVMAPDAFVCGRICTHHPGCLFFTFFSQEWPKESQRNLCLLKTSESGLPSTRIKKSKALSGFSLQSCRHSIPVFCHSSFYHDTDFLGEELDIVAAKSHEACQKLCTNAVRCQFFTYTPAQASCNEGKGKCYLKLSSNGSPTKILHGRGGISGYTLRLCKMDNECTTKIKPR
T1 sequence (P03951 388-625 limits assumed): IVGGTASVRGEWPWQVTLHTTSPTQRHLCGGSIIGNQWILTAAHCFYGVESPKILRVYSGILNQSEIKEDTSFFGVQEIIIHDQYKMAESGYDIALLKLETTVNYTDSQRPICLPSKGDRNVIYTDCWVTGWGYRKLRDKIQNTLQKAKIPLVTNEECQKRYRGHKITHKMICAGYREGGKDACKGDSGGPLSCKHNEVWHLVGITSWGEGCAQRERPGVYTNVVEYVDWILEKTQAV

The bioavailability is the share of a dose that reaches the circulation, judged against a reference dose that is usually intravenous. In general, IC50 refers to the concentration needed to halve the response being measured. For `CC(C)c1cc(-c2ccc3c(c2)[C@H](N)CO3)cc([C@H](O)Cn2ccc3cccc(C(=O)O)c32)c1`, the figures for the bioavailability in data set [1], in data set [8] and in data set [10] were 10%, 16% and 45%, respectively. In data set [2], this compound had a clearance of 11 mL/min/kg. The Vd in data set [3] came out at 0.57 L/kg; in [5] it was 1.3 L/kg. Moreover, the IC50 at Coagulation factor XI [4] came to 10 nM; against Coagulation factor XI [6], 0.4 nM; against Coagulation factor VII, 3650 nM; at Bile salt export pump, 28000 nM. Further, the AUC/dose in data set [7] was found to be 260215 nM·h; in [9] it was 3264 nM·h. In data set [11], this compound displayed an AUCt/dose of 621 nM·h.
